For experiment [1], the target named is Na(+)/citrate cotransporter (Mus musculus, UniProt Q67BT3). Kind of experiment: Inhibition of NaCT in mouse hepatocytes assessed as [14C]-citrate uptake after 30 mins by scintillation counting method. In kind it is cell-based, Hepatocyte.
Experiment [2] concerns Mus musculus. Kind of experiment: Increase in urinary calcium level in C57BL/6J mouse at 250 mg/kg, po measured after 7 hrs by UPLC-MS/MS analysis. In kind it is functional, organism-based. As to conditions: Urine.
The species entered for experiment [3] is Rattus norvegicus. The experiment in a line: Increase in […][13C]-citrate levels in rat liver measured over 140 to 150 mins by UPLC-MS/MS analysis. In kind it is functional, organism-based.
For experiment [4], the target named is Gastrin/cholecystokinin type B receptor (Homo sapiens) (UniProt P32239). The experiment in a line: Inhibition of CCKBR (unknown origin).
In experiment [5] the target is 3',5'-cyclic-AMP phosphodiesterase 4D (Homo sapiens) (UniProt Q08499). The experiment in a line: Inhibition of PDE4D3 (unknown origin).

Activity calls are given as the source filed them. The rule behind the calls is not given here.

Chain of 3',5'-cyclic-AMP phosphodiesterase 4D (Homo sapiens) (Q08499 whole entry): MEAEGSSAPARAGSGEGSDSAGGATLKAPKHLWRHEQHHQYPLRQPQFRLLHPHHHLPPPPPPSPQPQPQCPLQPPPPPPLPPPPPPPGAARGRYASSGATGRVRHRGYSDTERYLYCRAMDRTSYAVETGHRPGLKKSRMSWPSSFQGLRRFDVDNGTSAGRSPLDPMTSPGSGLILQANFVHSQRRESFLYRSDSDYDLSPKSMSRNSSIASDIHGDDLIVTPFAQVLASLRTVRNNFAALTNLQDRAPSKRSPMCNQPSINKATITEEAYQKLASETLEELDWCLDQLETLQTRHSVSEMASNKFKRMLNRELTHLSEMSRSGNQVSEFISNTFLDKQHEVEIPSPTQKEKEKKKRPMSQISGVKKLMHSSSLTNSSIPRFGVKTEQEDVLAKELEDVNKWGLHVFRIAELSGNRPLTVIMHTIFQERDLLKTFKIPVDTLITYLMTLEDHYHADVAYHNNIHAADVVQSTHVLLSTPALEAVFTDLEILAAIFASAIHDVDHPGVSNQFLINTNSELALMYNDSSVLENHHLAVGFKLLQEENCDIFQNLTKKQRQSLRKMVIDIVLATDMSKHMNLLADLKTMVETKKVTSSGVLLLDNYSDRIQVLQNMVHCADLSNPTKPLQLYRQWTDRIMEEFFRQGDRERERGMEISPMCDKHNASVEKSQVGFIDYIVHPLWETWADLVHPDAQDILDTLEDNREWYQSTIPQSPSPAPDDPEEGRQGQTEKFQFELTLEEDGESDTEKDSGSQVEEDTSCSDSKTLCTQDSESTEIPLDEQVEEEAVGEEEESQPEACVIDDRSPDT
Chain of Gastrin/cholecystokinin type B receptor (Homo sapiens) (P32239 whole entry): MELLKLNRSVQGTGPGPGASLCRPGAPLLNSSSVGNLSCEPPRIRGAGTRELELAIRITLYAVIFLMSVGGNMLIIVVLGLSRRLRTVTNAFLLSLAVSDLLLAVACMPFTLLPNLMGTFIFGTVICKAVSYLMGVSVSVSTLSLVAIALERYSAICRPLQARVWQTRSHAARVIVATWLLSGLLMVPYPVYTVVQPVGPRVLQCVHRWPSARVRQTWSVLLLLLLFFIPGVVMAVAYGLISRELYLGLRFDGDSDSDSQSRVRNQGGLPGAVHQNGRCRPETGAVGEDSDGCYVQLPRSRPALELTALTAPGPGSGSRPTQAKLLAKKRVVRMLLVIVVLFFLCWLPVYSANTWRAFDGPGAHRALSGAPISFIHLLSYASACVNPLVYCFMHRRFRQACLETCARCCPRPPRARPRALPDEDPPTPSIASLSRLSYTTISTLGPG
Chain of Na(+)/citrate cotransporter (Q67BT3 whole entry): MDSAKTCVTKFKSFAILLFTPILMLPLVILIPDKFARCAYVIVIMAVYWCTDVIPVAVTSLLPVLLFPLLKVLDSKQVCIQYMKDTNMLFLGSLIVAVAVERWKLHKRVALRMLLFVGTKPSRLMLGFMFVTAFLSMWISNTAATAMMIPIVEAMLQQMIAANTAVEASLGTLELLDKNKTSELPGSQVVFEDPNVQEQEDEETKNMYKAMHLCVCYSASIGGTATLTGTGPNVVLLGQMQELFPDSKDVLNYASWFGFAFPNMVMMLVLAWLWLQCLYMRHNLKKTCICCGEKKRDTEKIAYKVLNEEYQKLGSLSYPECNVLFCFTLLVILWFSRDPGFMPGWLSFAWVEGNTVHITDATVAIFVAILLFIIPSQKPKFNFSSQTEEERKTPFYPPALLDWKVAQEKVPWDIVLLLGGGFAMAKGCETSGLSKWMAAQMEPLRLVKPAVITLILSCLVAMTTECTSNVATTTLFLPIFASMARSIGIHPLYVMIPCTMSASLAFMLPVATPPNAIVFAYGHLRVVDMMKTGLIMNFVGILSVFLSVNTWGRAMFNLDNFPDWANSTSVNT

For the molecule `COc1ncc(C)cc1CC[C@@](O)(CC(=O)O)C(=O)O`, in experiment [1], the IC50 came out at 210 nM. Also, the outcome in experiment [2] and in experiment [3] was Active. Further, the inhibition result in experiment [4] and in experiment [5] was “inactive” in each case.

For the origin of these results see ChEMBL document CHEMBL3769388, “Optimization of a Dicarboxylic Series for in Vivo Inhibition of Citrate Transport by the Solute Carrier 13 (SLC13) Family” (J Med Chem, 2016).
